Data from US20150284689A1, “STRATEGY FOR ENGINEERING VARIOUS 3D TISSUES, ORGANOIDS AND VASCULATURE” (THE REGENTS OF THE UNIVERSITY OF CALIFORNIA, priority 2012, published 2015).

Assays:
[1] = tested on: isolated ureteric bud, Wolffian duct bud; test: isolated ureteric bud / Wolffian duct culture in biocompatible matrix, branching morphogenesis; format: cell-based; settings: isolated UB/WD separated from MM, in Matrigel/collagen gel
Text: This isolated cell culture system can serve as a powerful assay system since it directly assesses the effect of soluble factors on cell morphogenesis and tubulogenesis.
As discussed herein, the disclosure provides methods and compositions whereby isolated budding epethelia (e.g., UBs, WDs, or UBs and WDs) can be co-cultured and stimulated by extrinsic factors to induce branching. These branching buds can then be combined with a tissue specific mesenchymal cell population to develop a desired tissue (e.g., combined with metanephric mesenchyme to produce kidney tissue). For example, whole isolated intact UB, WD, or UB and ND (cleanly separated from surrounding MM) can be induced to undergo branching morphogenesis in vitro in a manner similar to UB, WD, or UB and WD culture. Suspension of the isolated UBs, WDs, or UBs and WDs within, or on, a natural or artificial biocompatible substrate (e.g., Matrigel/collagen gel) and when exposed to a mixture of mesenchyme-cultured media augmented with GDNF, results in the isolated unbranched UB, WD, or UB and WD rapidly forming a polarized, extensively branched structure with an internal lumen. […] This modulation is typically branch-promoting, elongation promoting, or branch-inhibiting.
The culture system and methods of the disclosure provide toe ability to propagate the isolated UB, WD, or UB and WD in vitro through several generations. For example, isolated stem cells, UB, WD, or any combination thereof are cultured in vitro and induced to undergo branching morphogenesis in the presence of BSN-CM or pleiotrophin and GDNF or pleiotrphin, FGF1, and GDNF. After 8 days, the cultured bud is subdivided into approximate 3rds and re-suspended within a suitable biocompatible matrix (matrigel/collagen gel). This 2nd generation bud is further subdivided after another 8 days of culture and the 3rd generation bud is cultured for 8 days (thus yielding at least 9 subdivided buds from one progenitor bud) (e.g., see FIG. 9A-B). These subsequent clonal generations of cultured UB, WD, or UB and WD retain the ability of the progenitor bud to induce mesenchyme upon in vitro recombination. The buds also retained the capacity to form cohesive conduits with the mesenchymally-derived tubules that they induced. Thus, the disclosure provides the ability to develop and propagate a clonal, expanded, and long-lived colony of ureteric bud, Wolffian duct bud, or ureteric and Wolffian duct buds, derived from a single progenitor bud that retains the properties of the progenitor. Using similar techniques with the MM, it is possible to develop colonies of mesenchyme derived from a single progenitor mesenchyme that can then be recombined with a propagated UB, WD, or UB and WD.

cultured mesenchyme = test: cultured isolated mesenchyme, induction/differentiation; format: cell-based; settings: isolated mesenchyme cultured in vitro
MDCK and mIMCD cells = settings: three-dimensional cultures of MDCK and mIMCD cells; cited from earlier work

| Molecule | effect on branching morphogenesis of isolated UB, WD [1] | also measured |
| --- | --- | --- |
| Endostatin | selectively inhibits branching of the UB, WD, or UB and WD |  |
| FGF1: fibroblast growth factor-1 | induced the formation of elongated stern cells, UB, ND, or any combination thereof branching stalks |  |
| FGF2: growth factor present in UB/WD conditioned media |  | effect on cultured mesenchyme (mesenchymal-to-epithelial transformation, survival, differentiation) (cultured mesenchyme): appear to promote survival but not differentiation of mesenchyme |
| HGF: Hepatocyte growth factor |  | formation of branching tubular structures with lumens (MDCK and mIMCD cells): induce the formation of branching tubular structures with lumens |
| LIF: leukemia-inhibitory factor, isolated from UB, WD conditioned media |  | effect on cultured mesenchyme (mesenchymal-to-epithelial transformation, survival, differentiation) (cultured mesenchyme): induce mesenchymal-to-epithelial transformation of cultured mesenchyme |
| FGF7: fibroblast growth factor-7 (protein, UniProt P21781 32-194, looked up) Fibroblast growth factor 7: CNDMTPEQMATNVNCSSPERHTRSYDYMEGGDIRVRRLFCRTQWYLRIDKRGKVKGTQEMKNNYNIMEIRTVAVGIVAIKGVESEFYLAMNKEGKLYAKKECNEDCNFKELILENHYNTYASAKWTHNGGEMFVALNQKGIPVRGKKTKKEQKTAHFLPMAIT | induced amorphous buds displaying nonselective proliferation with little distinction between stalks and ampullae |  |
| pleiotrophin: polypeptide in active morphogenetic fraction of BSN-CM; fibroblast proliferative and neurite outgrowth-promoting factor (protein, UniProt P21246 33-168, looked up) Pleiotrophin: GKKEKPEKKVKKSDCGEWQWSVCVPTSGDCGLGTREGTRTGAECKQTMKTQRCKIPCNWKKQFGAECKYQFQAWGECDLNTALKTRTGSLKRALHNAECQKTVTISKPCGKLTKPKPQAESKKKKKEGKKQEKMLD | induces branching morphogenesis of the whole ureteric bud, Wolffian duct bud, or ureteric and Wolffian duct bud |  |
